This is an account of results in patent US11661430B2, “Tetrazole derivatives as TRPA1 inhibitors” (Boehringer Ingelheim International GmbH, priority 2020, dated 2023).

The target of one data set is T1, human TRPA1 ion channel (Homo sapiens, UniProt O75762).
T1 construct: host or cells: HEK293
Description: Assay A: TRPA1 assay (FLIPR, AITC-induced intracellular calcium in HEK293 cells). The data set is classed as cell-based. To be noted: HEK293 cells over-expressing human TRPA1, AITC 10 μM, FLIPRtetra; read-out: hTRPA1 IC50. The method, then:
A human HEK293 cell line over-expressing the human TRPA1 ion channel (Perkin Elmer, Product No. AX-004-PCL) is used as a test system for compound efficacy and potency. Compound activity is determined by measuring the effect of compounds on intracellular calcium concentration induced by AITC (Allylisothiocyanat) agonism in a FLIPRtetra system (Molecular Devices).
The cells are obtained as frozen cells in cryo-vials and stored until use at −150° C. Cells are grown in culture medium (MEM/EBSS medium with 10% FCS and 0.4 mg/ML Geneticin). […] For sub-culturing cells are detached from flasks by Versene. At the day before the assay, cells are detached, washed twice with medium (MEM/EBSS medium with 10% FCS) and 20000 cells in 20 μl/well are seeded to Poly D-Lysin biocoated 384-well plates (black, clear bottom, Cat. 356697) from Corning. Plates are incubated for 24 hours at 37° C./5% CO2 before use in the assay.
The test compounds are dissolved in 100% DMSO at a concentration of 10 mM and in a first step diluted in DMSO to a concentration of 5 mM, followed by serial dilution steps in 100% DMSO. Dilution factor and number of dilution steps may vary according to needs. Typically 8 different concentrations by 1:5 dilutions are prepared, further intermediate dilutions (1:20) of the substances are carried out with HBSS/HEPES buffer (1×HEPES, Cat. 14065 from Gibco, 20 mM HEPES, Cat. 83264 from SIGMA, 0.1% BSA Cat. 11926 from Invitrogen, pH 7.4
At the assay day cells are washed 3× with assay puffer, 20 μL buffer remaining in the wells after washing. 10 μL Ca6 kit (Cat. R8191 Molecular Devices) loading buffer in HBSS/HEPES is added to the cells and the plates are incubated with lid for 120 minutes at 37°/5% CO2. […] Finally 10 μL of the agonist AITC 50 μM dissolved in HBSS/HEPES buffer/0.05% DMSO (final concentration 10 μM) is added to the wells followed by an additional read on the FLIPRtetra device for 10 minutes. The area under the signal curve (AUC) after AITC addition is used for IC50/% inhibition calculations
Data Evaluation and Calculation:
Each assay microtiter plate contains wells with vehicle (1% DMSO) controls instead of compound as controls for AITC induced luminescence (100% CTL; high controls) and wells with vehicle controls without AITC as controls for non-specific changes in luminescence (0% CTL; low controls).
The analysis of the data is performed by the calculation of the area under signal curve of the individual wells. Based on this values the % value for the measurement of each substance concentration is calculated (AUC(sample)−AUC(low))*100/(AUC(high)−AUC(low)) using MegaLab software (in house development). The IC50 values are calculated from the % control values using MegaLab software. Calculation: [y=(a−d)/(1+(x/c)^b)+d], a=low value, d=high value; x=conc M; c=IC50 M; b=hill; y=% ctrl
A general note: A change in cytosolic calcium serves as a functional read-out for many receptors and channels.

Data set [1] in a line: Assay C: Hepatocyte clearance. The format is in vitro ADME, human. To be noted: hepatocyte suspension, 1 μM test compound, 5% species serum, six hours. As to the method:
Assay C: Hepatocyte Clearance
The metabolic degradation of the test compound is assayed in a hepatocyte suspension. Hepatocytes (cryopreserved) are incubated in Dulbecco's modified eagle medium (supplemented with 3.5 μg glucagon/500 mL, 2.5 mg insulin/500 mL and 3.75 mg/500 mL hydrocortison) containing 5% species serum.
The cells are incubated for six hours (incubator, orbital shaker) and samples (25 μl) are taken at 0, 0.5, 1, 2, 4 and 6 hours. Samples are transferred into acetonitrile and pelleted by centrifugation (5 min). The supernatant is transferred to a new 96-deepwell plate, evaporated under nitrogen and resuspended.
Decline of Parent Compound is Analyzed by HPLC-MS/MS
CLint is calculated as follows CL_[…]=Dose/AUC=(CO/CD)/(AUD+clast/k)×1000/60. C0: initial concentration in the incubation [μM], CD: cell density of vital cells [10e6 cells/mL], AUD: area under the data [μM×h], clast: concentration of last data point [μM], k: slope of the regression line for parent decline [h−1].
The calculated in vitro hepatic intrinsic clearance can be scaled up to the intrinsic in vivo hepatic Clearance and used to predict hepatic in vivo blood clearance (CL) by the use of a liver model (well stirred model). CL_[…]_INVIVO [ml/min/kg]=(CL_[…] [μL/min/10e6 cells]×hepatocellularity [10e6 cells/g liver]×liver factor [g/kg bodyweight])/1000 CL[ml/min/kg]=CL_[…]_INVIVO [ml/min/kg]×hepatic blood flow [ml/min/kg]/(CL_[…]_INVIVO [ml/min/kg]+hepatic blood flow [ml/min/kg]) Qh[%]=CL[ml/min/kg]/hepatic blood flow [ml/min/kg])
(§1) Hepatocellularity, human: 120×10e6 cells/g liver
(§2) Liver factor, human: 25.7 g/kg bodyweight
(§3) Blood flow, human: 21 ml/(min×kg)

Data set [2] can be described thus: Assay B: Microsomal clearance. The format is in vitro ADME, human. To be noted: pooled liver microsomes, 1 μM test compound, 37° C., NADPH. The method, then: Assay B: Microsomal Clearance:
The metabolic degradation of the test compound is assayed at 37° C. with pooled liver microsomes. The final incubation volume of 100 μl per time point contains TRIS buffer pH 7.6 at RT (0.1 M), magnesium chloride (5 mM), microsomal protein (1 mg/ml) and the test compound at a final concentration of 1 μM.
Following a short preincubation period at 37° C., the reactions are initiated by addition of beta-nicotinamide adenine dinucleotide phosphate, reduced form (NADPH, 1 mM) and terminated by transferring an aliquot into solvent after different time points (0, 5, 15, 30, 60 min). Additionally, the NADPH-independent degradation is monitored in incubations without NADPH, terminated at the last time point. The [%] remaining test compound after NADPH independent incubation is reflected by the parameter c(control) (metabolic stability). The quenched incubations are pelleted by centrifugation (10000 g, 5 min). An aliquot of the supernatant is assayed by LC-MS/MS for the amount of parent compound. The half-life (t½ INVITRO) is determined by the slope of the semilogarithmic plot of the concentration-time profile.
The intrinsic clearance (CL_[…]) is calculated by considering the amount of protein in the incubation: CL_[…] [μl/min/mg protein]=(Ln 2/(half-life [min]*protein content [mg/ml]))*1000 CL_[…]_INVIVO [ml/min/kg]=(CL_[…] [μL/min/mg protein]×MPPGL [mg protein/g liver]×liver factor [g/kg bodyweight])/1000 Qh[%]=CL[ml/min/kg]/hepatic blood flow [ml/min/kg])
as §1, §2, §3
For orientation: Liver microsomes are a subcellular fraction often used to study metabolism.

A value given as a limit tells only on which side of the number the result lay.

T1 sequence (O75762 whole entry): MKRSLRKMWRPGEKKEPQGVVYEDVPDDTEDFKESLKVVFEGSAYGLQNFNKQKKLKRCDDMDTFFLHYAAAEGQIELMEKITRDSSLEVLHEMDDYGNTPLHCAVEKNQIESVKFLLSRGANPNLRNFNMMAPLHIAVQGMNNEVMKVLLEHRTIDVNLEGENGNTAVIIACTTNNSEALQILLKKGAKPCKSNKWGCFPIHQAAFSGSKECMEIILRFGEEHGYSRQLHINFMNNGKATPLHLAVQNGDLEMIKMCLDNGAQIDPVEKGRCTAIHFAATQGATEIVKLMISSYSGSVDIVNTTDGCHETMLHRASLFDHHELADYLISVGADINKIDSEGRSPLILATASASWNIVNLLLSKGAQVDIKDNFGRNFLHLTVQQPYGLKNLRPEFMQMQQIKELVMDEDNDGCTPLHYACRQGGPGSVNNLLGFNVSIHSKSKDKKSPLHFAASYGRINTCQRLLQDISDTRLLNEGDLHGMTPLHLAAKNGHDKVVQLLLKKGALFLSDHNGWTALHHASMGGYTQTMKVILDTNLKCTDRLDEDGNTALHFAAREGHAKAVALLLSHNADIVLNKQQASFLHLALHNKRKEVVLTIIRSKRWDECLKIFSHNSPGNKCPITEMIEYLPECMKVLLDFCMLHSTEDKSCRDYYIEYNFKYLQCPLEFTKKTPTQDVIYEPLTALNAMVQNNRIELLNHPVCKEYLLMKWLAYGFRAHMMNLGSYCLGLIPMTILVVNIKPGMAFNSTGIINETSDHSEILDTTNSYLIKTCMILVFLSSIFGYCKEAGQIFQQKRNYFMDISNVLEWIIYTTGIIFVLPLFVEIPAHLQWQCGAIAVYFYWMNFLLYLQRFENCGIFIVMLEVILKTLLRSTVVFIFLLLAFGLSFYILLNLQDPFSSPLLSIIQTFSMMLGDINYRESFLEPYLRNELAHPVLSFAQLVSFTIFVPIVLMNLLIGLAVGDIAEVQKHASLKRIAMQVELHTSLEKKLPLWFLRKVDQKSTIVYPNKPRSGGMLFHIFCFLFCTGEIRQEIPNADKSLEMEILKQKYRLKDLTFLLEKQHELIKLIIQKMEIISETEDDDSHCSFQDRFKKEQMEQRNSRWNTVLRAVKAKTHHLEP

`NC(=O)c1csc2ncn(Cc3nnn(C[C@H](O)c4ccc(Cl)cc4)n3)c(=O)c12` [Example 1, 3-({2-[(2R)-2-(4-chlorophenyl)-2-hydroxyethyl]-2H-1,2,3,4-tetrazol-5-yl}methyl)-4-oxo-3H,4H-thieno[2,3-d]pyrimidine-5-carboxamide]: at human TRPA1 ion channel, the IC50 (as a rule, the concentration needed to halve the response being measured) stood at 0.028 µM. In addition, in data set [1], the “human Hepatocytes [% Qh]” value was under 4 % Qh. Also, the “human LM [% Qh]” value in data set [2] is recorded as under 23 % Qh.
With `NC(=O)c1csc2ncn(Cc3nnn(C[C@H](O)c4cc5ccc(F)cc5s4)n3)c(=O)c12` [Example 2], in data set [1], the “human Hepatocytes [% Qh]” value amounted to 19 % Qh. The “human LM [% Qh]” value in data set [2] is given as 33 % Qh.
The like results for `NC(=O)c1csc2ncn(Cc3nnn(C[C@H](O)c4cc5cc(Cl)ccc5o4)n3)c(=O)c12` [Example 3] were, in that order, 26 % Qh and 27 % Qh.
For `NC(=O)c1csc2ncn(Cc3nnn(C[C@H](O)c4ccc5oc(F)cc5c4)n3)c(=O)c12` [Example 4], in that order: 6 % Qh and under 23 % Qh.
For `NC(=O)c1csc2ncn(Cc3nnn(C[C@H](O)c4cc5ccccc5s4)n3)c(=O)c12` [Example 5], in that order: 20 % Qh and 28 % Qh.
Regarding `NC(=O)c1csc2ncn(Cc3nnn(C[C@H](O)c4cc5cc(F)ccc5o4)n3)c(=O)c12` [Example 6], the “human Hepatocytes [% Qh]” value in data set [1] amounted to 26 % Qh. Moreover, the “human LM [% Qh]” value in data set [2] is given as under 23 % Qh.
Regarding `NC(=O)c1csc2ncn(Cc3nnn(C[C@H](O)c4cc(Cl)c(Cl)s4)n3)c(=O)c12` [Example 7], in data set [1], the “human Hepatocytes [% Qh]” value is given as 41 % Qh. In data set [2], the “human LM [% Qh]” value was found to be 34 % Qh.
On to `NC(=O)c1csc2ncn(Cc3nnn(C[C@H](O)c4cc5cc(Cl)c(F)cc5o4)n3)c(=O)c12` [Example 8], for which the IC50 at human TRPA1 ion channel stood at 0.026 µM. For the same molecule, in data set [1], the “human Hepatocytes [% Qh]” value was found to be 20 % Qh. Further, the “human LM [% Qh]” value in data set [2] was 26 % Qh.
Consider `NC(=O)c1csc2ncn(Cc3nnn(C[C@H](O)c4cc5ccccc5o4)n3)c(=O)c12` [Example 9], for which, at human TRPA1 ion channel, the IC50 amounted to 0.029 µM. For the same molecule, in data set [1], the “human Hepatocytes [% Qh]” value is listed as 14 % Qh. Besides, the “human LM [% Qh]” value in data set [2] is under 23 % Qh.
For `Cc1ccc([C@@H](O)Cn2nnc(Cn3cnc4scc(C(N)=O)c4c3=O)n2)cc1` [Example 10], in that order: 0.031 µM, 8 % Qh and under 23 % Qh.
The like results for `NC(=O)c1csc2ncn(Cc3nnn(C[C@H](O)c4ccc(Cl)s4)n3)c(=O)c12` [Example 11] were, in that order, 0.031 µM, 14 % Qh and under 23 % Qh.
In the case of `NC(=O)c1csc2ncn(Cc3nnn(C[C@H](O)c4ccc(Br)cc4)n3)c(=O)c12` [Example 12], the IC50 on human TRPA1 ion channel stood at 0.034 µM. Besides, the “human Hepatocytes [% Qh]” value in data set [1] is under 4 % Qh. The “human LM [% Qh]” value in data set [2] is given as under 23 % Qh.
The like results for `NC(=O)c1csc2ncn(Cc3nnn(C[C@H](O)c4cc5cc(F)c(F)cc5o4)n3)c(=O)c12` [Example 13] were, in that order, 0.037 µM, 10 % Qh and under 23 % Qh.
`NC(=O)c1csc2ncn(Cc3nnn(C[C@H](O)c4cc5cccc(F)c5o4)n3)c(=O)c12` [Example 14]: the IC50 at human TRPA1 ion channel is 0.041 µM. The “human Hepatocytes [% Qh]” value in data set [1] is 14 % Qh. Also, the “human LM [% Qh]” value in data set [2] is under 23 % Qh.
The like results for `NC(=O)c1csc2ncn(Cc3nnn(C[C@H](O)c4cc5cc(F)c(Cl)cc5o4)n3)c(=O)c12` [Example 15] were, in that order, 0.065 µM, 30 % Qh and under 23 % Qh.
As to `N#Cc1cc2ccc([C@@H](O)Cn3nnc(Cn4cnc5scc(C(N)=O)c5c4=O)n3)cc2o1` [Example 16], the IC50 at human TRPA1 ion channel worked out at 0.07 µM. Moreover, in data set [1], the “human Hepatocytes [% Qh]” value turned out to be 19 % Qh. Also, the “human LM [% Qh]” value in data set [2] was under 23 % Qh.
Regarding `COc1ccc([C@@H](O)Cn2nnc(Cn3cnc4scc(C(N)=O)c4c3=O)n2)cc1` [Example 17], the IC50 at human TRPA1 ion channel was 0.131 µM. Also, the “human Hepatocytes [% Qh]” value in data set [1] was determined as 18 % Qh. The “human LM [% Qh]” value in data set [2] is reported as under 23 % Qh.
Take `N#Cc1ccc([C@@H](O)Cn2nnc(Cn3cnc4scc(C(N)=O)c4c3=O)n2)s1` [Example 18]: the IC50 on human TRPA1 ion channel is 0.143 µM. Further, the “human Hepatocytes [% Qh]” value in data set [1] is on record as under 4 % Qh. The “human LM [% Qh]” value in data set [2] is on record as under 23 % Qh.
